Data on 6 compounds can be found in patent US7962204B2 (priority 2001, dated 2011).

For assay [1], the system named is patients with alpha frequency deficits / theta excess. More on the design: species or system human. The settings on record: in vivo.
Assay [2] concerns patients with various DSM diagnoses. As to conditions: human, in vivo.
In assay [3] the test system is behaviorally-diagnosed psychiatric conditions (DSM categories). Details: species or system human. As to conditions: in vivo.

In the case of `CC(NC(C)(C)C)C(=O)c1cccc(Cl)c1` (stereo not shown) [Bupropion], the “clinical response of patients 1-4” value in assay [1] was “responded positively”.
In assay [2], `C[C@H](N)Cc1ccccc1` [D-amphetamine] gave a false negatives of 5 patients.
For `NC(=O)CC[C@H](N)C(=O)O` [GLUTAMINE, reference compound], the “clinical response of granddaughter” value in assay [1] was “successfully treated”. Further, in assay [3], the “agent found effective in 299.00 Autistic Disorder” value is reported as “N”, the “agent found effective in 300.00 Anxiety Disorder NOS” value is given as “N”, the “agent found effective in 300.02 Generalized Anxiety Disorder” value is “N” and the “agent found effective in 300.22 Agoraphobia Without History of Panic Disorder” value is listed as “N”. For the same compound, in assay [3], the “agent found effective in 300.23 Social Phobia” value is given as “N”, the “agent found effective in 300.29 Specific Phobia” value is “N”, the “agent found effective in 300.3 Obsessive-Compulsive Disorder” value is recorded as “N” and the “agent found effective in 309.81 Posttraumatic Stress Disorder” value was “N”. Besides, in assay [3], the “agent found effective in Panic Disorder” value is recorded as “N” and the “use in Dementia of the Alzheimer's Type” value is “N”.
In the case of `N[C@@H](Cc1ccc(O)cc1)C(=O)O` [L-tyrosine], the “clinical response of granddaughter” value in assay [1] is listed as “successfully treated”.
Regarding `NC(=O)N1c2ccccc2C=Cc2ccccc21` [carbamazepine], the “clinical response of patients 1-4” value in assay [1] was “responded positively”.
As to `O=C1Nc2ccc(Cl)cc2C(c2ccccc2Cl)=NC1O` (stereo not shown) [lorazepam], the “response of chronic insomnia of patient 4” value in assay [1] is “only slightly responsive”.
